Measured values reported in patent US12447198B2, “Peptides and fragments for treating diabetes and associated metabolic diseases” (Betavive Ltd., priority 2021, dated 2025).
“Also recorded” adds a separate entry of the source.

Experiments:
STZ-treated mouse islets [1] = test: MTT viability of STZ-treated mouse islets; type: cell-based; settings: increasing concentrations
Text: Yellow dye MTT is converted to a purple dye by mitochondrial reductase in viable cells. Therefore, the amount of purple dye present determined by measuring optical density of cells at 570 nm serves as a measurement of cell viability.

C57BL/6 STZ mice = test: Fasting blood glucose in STZ-induced diabetic C57BL/6 mice treated with IGF-2; type: in vivo, mouse; settings: for fasting glucose levels during the ten-day course of treatment: day 0 and ten more times within ten days
Experimental: C57BL/6 mice male 8-10 weeks old, housed under conventional conditions and allowed laboratory chow and water ad libitum, were used in the experiments described below in Examples 3-4. Within each experiment, animals were matched by age and weight (20-24 g) and randomly divided into groups to receive different treatments. Diabetes was induced by one or more doses of streptozotocin (STZ).
Briefly, animals received intraperitoneally (i.p.) 100 mg/kg (b.w.) STZ (Cayman Chemical, Ann Arbor, MI) dissolved in citrate buffer on pH 4.5 (this procedure was repeated if needed). Clinical diabetes was defined by hyperglycemia (blood glucose levels >300 mg/dl in fasted animals). Fasting blood glucose levels were measured three times per week and samples were taken from the tail tip after starvation for 6 hours throughout the experiment.
(§1) Fasting blood glucose levels (mg/dL) were determined using the Accu-Chek Performa glucometer (Roche Diagnostics, Mannheim, Germany). After approximately two weeks of stable hyperglycemia, C57BL/6 STZ mice received exogenous injections of recombinant human IGF-2 (0.3-12 mg/kg/day injection) intraperitoneally for 5-10 consecutive days. During post-treatment follow-up period and upon termination, mice were tested for: fasting glucose, body weight, glucose tolerance test (IPGTT), serum C-peptide level, serum insulin level, and full blood and histological analysis (CBC, Chemistry, Insulin IHC and H&E).

NOD mice [2] = test: Islet cell staining for glucagon and insulin in NOD mice; type: in vivo, mouse; settings: NOD mice treated with IGF-2 for 13 weeks
[3] = tested on: human pancreatic islet cells; test: Insulin secretion of human pancreatic islet cells in response to a glucose pulse; type: cell-based; settings: 50 nM for four days
STZ-treated mice [4] = test: Pancreas histology and insulin immunohistochemical staining of islets; type: in vivo, mouse
Experimental: FIG. 21 depicts pancreas histology results on STZ-treated mice. […] The non-control mice were treated once a day for 10 days with a 3000 μg/kg dose of IGF-2. The mice were sacrificed on day 35 and pancreas cells were assessed as being insulin positive or negative.

NOD mice [5] = test: Serum insulin / insulin secretion in NOD mice treated with IGF-2; type: in vivo, mouse
Experimental: FIG. 30B depicts the levels of serum insulin in NOD mice measured two weeks after a 66 day course of treatment using IGF-2. Mice that were treated with 3000 μg/kg/day of IGF-2 had serum insulin levels that were about 4-fold higher than the control mice.
In one exemplary experiment, NOD mice were treated with a 3000 μg/kg daily doses of IGF-2 for 150 days. ⅘ of the treated mice maintained normoglycemia compared to ¼ of the control mice. In another exemplary experiment, NOD mice were treated with a 3000 μg/kg daily dose of IGF-2 for 75 days with follow-up glucose measurements taken for an additional 90 days (during which IGF-2 was not administered). ⅝ of the treated mice maintained normoglycemia compared to 2/11 of the control mice.

STZ-treated mice [6] = test: Short term effects of a single IGF-2 injection on glucose and IGF-2 levels, 240 minute time course; type: in vivo, mouse
Experimental: More specifically, the top panel illustrates the drop in glucose blood levels in three STZ-treated mice after receiving a 800 μg/kg/day dose of IGF-2 over a 240 minute time course. […] IGF-2 is part of a complex system comprising IGF-1 and IGF-2 along with binding proteins, proteases and other interacting molecules. […] Normoglycemia is maintained while total serum IGF-2 is reduced to very low levels. […] Without being bound by this theory, it is believed that a slow release of IGF-2 from a serum complex can maintain normal blood glucose levels.

STZ-treated mice [7] = test: Serum insulin and c-peptide levels four weeks after IGF-2 treatment; type: in vivo, mouse; settings: four weeks post treatment
Experimental: as §1
C-peptide is a biomarker used to assess pancreatic beta cell function and is normally produced in equimolar amounts to endogenous insulin. Leighton et al., A Practical Review of C-Peptide Testing in Diabetes, Diabetes Ther. 2017 June; 8 (3): 475-487.

STZ-treated mouse islets [8] = test: Insulin secretion from STZ-treated mouse islets; type: cell-based; settings: islets treated with 2.5 mM STZ; 48 hours after treatment; IGF-2 50 nM and 500 nM, GLP-1 100 nM and 1000 nM
Experimental: Mouse islet cells were treated with 2.5 mM STZ and subsequently treated with either IGF-2 (FA) at 50 nM and 500 nM, or with GLP-1 at 100 nM and 1000 nM.

[9] = Safety/toxicity: pathology of blood samples and tissue samples from thirty organs; type: in vivo; settings: end of 10 days of treatment, 24 days after termination, and 100 days after termination of 30 days of treatment
mice = test: Blood glucose concentration kinetics of IGF-2 vs. insulin in a glucose tolerance test; type: in vivo, mouse; settings: IGF-2 800 μg/kg
Text: IGF-2 therefore provides an effect that mimics insulin within the body, and that effect is referred to herein as an “insulinomimetic” effect. […] In this example, administering IGF-2 can provide better results than administering insulin with respect to blood glucose levels, even when only a single dose was used. Without being bound by this theory, it is possible that the IGF-2 combines with a number of binding proteins in the blood and its active free form is then released slowly from the complex.

β-MIN6 cells = test: Insulin secretion of β-MIN6 cells following glucose induction; type: cell-based, mouse; settings: 1 week treatment; IGF-2 5 nM, 20 nM, 80 nM
Text: β-MIN6 cells serve as an in vitro model of mouse pancreatic islets. β-MIN6 cells were used as an in vitro model to measure the effects of treatment with IGF-2.

insulin-like growth factor 2 [IGF-2]
mouse islet viability (MTT, optical density at 570 nm) (STZ-treated mouse islets [1]): increased in a dose dependent manner | hypoglycemia (C57BL/6 STZ mice; 3000 μg/kg/day, also when the dose was increased to 12,000 μg/kg/day): Hypoglycemia was never observed | hypoglycemia (C57BL/6 STZ mice; 10:1 ratio of dosages, between 3000 μg and 300 μg): did not cause hypoglycemia | fasting glucose levels during and shortly after the course of treatment (C57BL/6 STZ mice; IGF-2 300 μg/kg/day, initial dose and ten additional doses over ten days, STZ mice B5, B6, B3, B4): did not return to a normal range; also recorded: temporary drop in fasting glucose levels from days 10-25 | long-term results on fasting glucose levels (C57BL/6 STZ mice; IGF-2 300 μg/kg/day, STZ mice B5, B3, B4): long-term results were not observed | fasting glucose levels during the ten-day course of treatment (C57BL/6 STZ mice; IGF-2 800 μg/kg/day, STZ mice A8, A6, F3, F4): returned to a normal range | blood glucose levels remaining, mice with full or almost full resolution (C57BL/6 STZ mice; IGF-2 800 μg/kg/day, half the mice (FIGS. 5A and 5B)): ~200 mg/dL | fasting glucose levels after the course of treatment (long term) (C57BL/6 STZ mice; IGF-2 800 μg/kg/day, mice A8 and A6): remained in the normal range until the end of the experiment; also recorded: remained in the normal range until STZ was provided again | fasting glucose levels after the ten day course of injections ended (C57BL/6 STZ mice; IGF-2 800 μg/kg/day, mice F3 and F4): around 400 | blood glucose levels remaining, mice with partial improvement (C57BL/6 STZ mice; IGF-2 800 μg/kg/day, the remaining mice (FIGS. 6A and 6B)): ~400 mg/dL | fasting glucose levels during the ten-day course of treatment (C57BL/6 STZ mice; IGF-2 3000 μg/kg/day, STZ mice C1, C8, C6, F1): returned to a normal range | long-term improvements in blood glucose levels (C57BL/6 STZ mice; IGF-2 12,000 μg/kg daily on each of 12 consecutive days): long-term improvements in blood glucose levels were obtained | long-term improvements in blood glucose levels (C57BL/6 STZ mice; IGF-2 12,000 μg/kg daily on only 5 consecutive days): long-term improvements in blood glucose levels were not obtained | time to reduce the blood glucose level to a normal range (C57BL/6 STZ mice; daily intraperitoneal 3000 μg/kg/day, averaged over four mice): 3 to 5 days | blood glucose level reached (normal range), averaged over four mice (C57BL/6 STZ mice; daily intraperitoneal 3000 μg/kg/day, maintained for the remainder of the 10 day window): 100 to 200 mg/dL | time post treatment for which normal blood glucose levels are maintained (C57BL/6 STZ mice; four mice, single 10 day course at 3000 μg/kg/day, long term follow up): at least 300 days | islet cells, histological staining for glucagon and insulin (NOD mice [2]): fully functional islet cells | increase of insulin secretion in response to a glucose pulse compared to untreated cells [3]: ~50% | number of functional beta cells (STZ-treated mice [4]; 3000 μg/kg once a day for 10 days, sacrificed on day 35, permanently cured mice): almost four fold increase | number of cells that test positive for insulin (STZ-treated mice [4]; 3000 μg/kg once a day for 10 days, sacrificed on day 35, permanently cured vs non-permanently cured and saline control): significant increase | level of insulin in pancreas islets as compared to a naïve mouse (immunohistochemical staining) (STZ-treated mice [4]; non-permanently cured mouse): lower level of insulin in its pancreas islets | level of insulin in pancreas islets as compared to a naïve mouse (immunohistochemical staining) (STZ-treated mice [4]; permanently cured mouse): higher level of insulin in its pancreas islets | serum insulin levels relative to the control mice (NOD mice [5]; 3000 μg/kg/day, two weeks after a 66 day course of treatment): about 4 fold | average insulin secretion of the treated mice (NOD mice [5]; both NOD experiments of Example 14, 3000 μg/kg daily): five times greater than the control mice | free IGF-2 levels relative to total IGF-2 (STZ-treated mice [6]; 800 μg/kg dose, 240 minute time course): a small fraction of the total IGF-2 concentration | period for which the normal blood glucose level lasts (STZ-treated mice [6]; single 800 μg/kg dose intraperitoneally): over four hours | blood glucose level reached (normal level) (STZ-treated mice [6]; single 800 μg/kg dose intraperitoneally, from hyperglycemic levels of 300-500 mg/dl): 100 to 200 mg/dL | increase in c-peptide levels (STZ-treated mice [7]; four STZ-treated mice): 12 fold | increase of serum insulin compared to STZ treated control mice (STZ-treated mice [7]; permanently cured mice): 50% | insulin secretion (STZ-treated mouse islets [8]): increased in a dose dependent manner | pathologies related to treatment in blood samples and tissue samples from thirty organs [9]: No pathologies were identified | time at which glucose levels began to rise relative to disappearance of IGF-2 from the blood (mice; compared with FIG. 13): two hours after the IGF-2 was no longer detectable in the blood | glucose level after administration (mice; glucose tolerance test in mice, insulin 1 unit per kg): the glucose level decreased | time after which the recovery in glucose levels began (mice; single dose, insulin 1 unit per kg): after six hours | insulin secretion following glucose induction (β-MIN6 cells): increases insulin secretion (following glucose induction) in a dose-dependent manner
